The subject of data set [1] is MRC-5 cells. The settings on record: Figure 1; previously reported series ref 21; cited from earlier work.
In data set [2] the test system is T. b. brucei. The conditions noted are these: 10 mg/kg IP s.i.d. for 5 days, positive control, n = 3. The method, then: (§1) The antiparasitic assays were carried out exactly as described in Blaazer et al.([39]) Metabolic stability, pharmacokinetics, acute mouse infection model results were collected as described previously.[21] All animal experiments were conducted in compliance with institutional guidelines and following approval by the Ethical Committee of the University of Antwerp, Belgium [UA-ECD 2014–96]. Female Swiss mice (15–20 g), were purchased from Janvier (Le Genest Saint Isle, France). […] Animals were treated PO b.i.d. for 5 days at 25 and 50 mg/kg 31c. For the SL-RNA qPCR experiments blood was collected sublingually and subjected to erythrocyte lysis before extracting RNA with the QIAamp RNA Blood Mini kit (Qiagen). […] Small pieces of fat, brain, and spleen tissue were excised and immediately transferred to RNA later (Qiagen) and incubated overnight at 4 °C. RNA extraction was performed as instructed in the RNeasy Mini Plus Kit manual (Qiagen). The one-step SensiFAST SYBR Hi-Rox PCR kit (Bioline USA Inc., via Gentaur Belgium BVBA, Kampenhout, Belgium) was used for the PCR with the following forward and reverse primers, respectively 5′-[…]-3′ and 5′-[…]-3′. An initial activation step of 10 min at 45 °C and 10 min at 95 °C was used, followed by the amplification step for 40 cycles (15 s at 95 °C, 15 s 50 °C and 15 s at 60 °C). At last, the melting curves were generated with an increment of 0.3 °C (15 s at 95 °C 1 min at 45 °C and 15 s at 95 °C). The PCR was run on the Step One Plus real-time PCR system (Applied Biosystems, California, USA). An additional qPCR was performed with the mouse housekeeping gene Eef2 to confirm successful RNA extraction.
Mice were allocated to groups of three and were infected by IP injection of 10^4T. brucei Squib 427 trypomastigotes. […] Suramin was included as a reference for T. brucei and injected IP s.i.d. for 5 days at 10 mg/kg. A PEG400 vehicle control group was also included. […] The first treatment was given 30 min prior to the artificial infection. Drug efficacy was evaluated by microscopic determination of the parasitemia in a blood drop collected from the tail vein at several time points until 63 days postinfection (dpi). […] An SL-RNA qPCR assay was performed in all surviving animals to confirm parasitological cure. For the SL-RNA qPCR, peripheral blood was subjected to erythrocyte lysis before extracting RNA with the QIAamp RNA Blood Mini kit (Qiagen). […] Small pieces of fat, brain, and spleen tissues were excised and immediately transferred to RNA later (Qiagen) and incubated overnight at 4 °C. RNA extraction was performed as instructed in the RNeasy Mini Plus Kit manual (Qiagen). […]

In data set [3] the test system is peritoneal mouse macrophages (PMM). The data set can be described thus: Cytotoxicity on peritoneal mouse macrophages. It is filed as cell-based. The settings on record: Macrophage, n ≥ 2.
In data set [4] the test system is Trypanosoma cruzi. The data set can be described thus: Antiparasitic assay, T. cruzi. Type of data set: cell-based. The settings on record: mean ± SD, n ≥ 2, read-out: pIC50 T. cruzi (converted). How it is done:
(§2) First, they were tested in vitro against the protozoan species Trypanosoma cruzi and Leishmania infantum and the clinically relevant T. b. rhodesiense.
as §1, with “An initial activation step of 10 min at 45 °C and 10 min at 95 °C was used, followed by the amplification step for 40 cycles (15 s at 95 °C, 15 s 50 °C and 15 s at 60 °C). At last, the melting curves were generated with an increment of 0.3 °C (15 s at 95 °C 1 min at 45 °C and 15 s at 95 °C). The PCR was run on the Step One Plus real-time PCR system (Applied Biosystems, California, USA). An additional qPCR was performed with the mouse housekeeping gene Eef2 to confirm successful RNA extraction.” left out

For data set [5] the following is noted: human, microsomes, 1 h.
Data set [6] concerns MRC-5 cells. The data set can be described thus: MRC-5SV2 cytotoxicity assay. Type of data set: cell-based. The conditions noted are these: Homo sapiens, MRC5, 72 h; cytotoxicity, 3 days incubation; mean ± SD, n ≥ 2; read-out: pIC50 MRC-5 (converted). How it is done:
The synthesized analogues were tested against T. b. brucei, and inhibition of MRC-5 (human lung fibroblasts MRC-5SV40) cell proliferation was included as cytotoxicity control. […] Analogue 17 with an amino group instead of the carbonyl group was prepared to improve solubility for further modification. […] In vitro experiments were carried out with the bloodstream form of the T. b. brucei Squib strain (suramin-sensitive). […] All cultures and assays were conducted at 37 °C under an atmosphere of 5% CO2. […] Cell growth is compared to untreated-control wells (100% cell growth) and medium-control wells (0% cell growth). […] After 4 h at 37 °C, fluorescence is measured (λex 550 nm, λem 590 nm). The results are expressed as % reduction in cell growth/viability compared to control wells and an IC50 and an IC90 (50 and 90% inhibitory concentrations) are determined.

Data set [7] concerns T. b. rhodesiense. Description: Trypanosoma susceptibility assay (resazurin viability). The settings on record: Trypanosoma brucei, mean ± SD, n ≥ 2, read-out: pIC50 T. b. rhodesiense (converted). It is filed as cell-based. How it is done:
The antiparasitic assays were carried out exactly as described in Blaazer et al.([39]) Metabolic stability, pharmacokinetics, acute mouse infection model results were collected as described previously.[21] All animal experiments were conducted in compliance with institutional guidelines and following approval by the Ethical Committee of the University of Antwerp, Belgium [UA-ECD 2014–96]. Female Swiss mice (15–20 g), were purchased from Janvier (Le Genest Saint Isle, France). […] Animals were treated PO b.i.d. for 5 days at 25 and 50 mg/kg 31c. For the SL-RNA qPCR experiments blood was collected sublingually and subjected to erythrocyte lysis before extracting RNA with the QIAamp RNA Blood Mini kit (Qiagen). […]
Parasites were counted in a KOVA counting chamber and diluted to 1.5 × 10^4 parasites/well of a 96-well plate (200 μL total volume), upon which the prediluted test compounds were added. […] After 3 days of incubation, parasite growth was assessed fluorimetrically after addition of 50 μL of resazurin per well. After 6 h (T. b. rhodesiense) or 24 h (T. b. brucei) at 37 °C, fluorescence is measured (λex 550 nm, λem 590 nm). Parasite viability was assessed using the resazurin viability assay, and drug activity was calculated as percentage viability reduction compared to nontreated controls.

In data set [8] the test system is Leishmania infantum. The data set can be described thus: Antiparasitic assay, L. infantum. It is filed as cell-based. The conditions noted are these: mean ± SD, n ≥ 2, read-out: pIC50 L. infantum (converted). The method, then:
as §2
as §1, with “An initial activation step of 10 min at 45 °C and 10 min at 95 °C was used, followed by the amplification step for 40 cycles (15 s at 95 °C, 15 s 50 °C and 15 s at 60 °C). At last, the melting curves were generated with an increment of 0.3 °C (15 s at 95 °C 1 min at 45 °C and 15 s at 95 °C). The PCR was run on the Step One Plus real-time PCR system (Applied Biosystems, California, USA). An additional qPCR was performed with the mouse housekeeping gene Eef2 to confirm successful RNA extraction.” left out

Data set [9] deals with T. b. brucei. Description: Trypanosoma susceptibility assay (resazurin viability). Type of data set: cell-based. The conditions noted are these: for IC50: Trypanosoma brucei, 72 h, T. b. brucei Squib bloodstream form, 72 h exposure, mean ± SD, n ≥ 2, read-out: pIC50 T. brucei (converted); for decrease of antitrypanosomal activity compared with 2: T. b. brucei. The method, then: as §1
In vitro experiments were carried out with the bloodstream form of the T. b. brucei Squib strain (suramin-sensitive). Parasites were routinely cultured in T25 culture flasks containing 10 mL of HMI-9 medium (Invitrogen) supplemented with 10% heat-inactivated fetal bovine serum (Life Technologies) and 2.5 μg/mL Geneticin (Life Technologies). MRC-5SV2 cells were cultured in MEM + Earl’s salts-medium, supplemented with 2 mM L-glutamine, 16.5 mM NaHCO3, and 5% inactivated fetal calf serum. All cultures and assays were conducted at 37 °C under an atmosphere of 5% CO2.
Parasites were counted in a KOVA counting chamber and diluted to 1.5 × 10^4 parasites/well of a 96-well plate (200 μL total volume), upon which the prediluted test compounds were added. Drug exposure covered a 72 h period without renewal of the culture medium. After 3 days of incubation, parasite growth was assessed fluorimetrically after addition of 50 μL of resazurin per well. After 6 h (T. b. rhodesiense) or 24 h (T. b. brucei) at 37 °C, fluorescence is measured (λex 550 nm, λem 590 nm). Parasite viability was assessed using the resazurin viability assay, and drug activity was calculated as percentage viability reduction compared to nontreated controls.

For data set [10] the following is noted: mouse, microsomes.
Data set [11] concerns T. b. brucei. More on the design: method as in PMID 37471520. The settings on record: previous in vivo results ref 21, cited from earlier work.
Data set [12] in a line: in vivo. The conditions noted are these: female, Swiss, mouse, in vivo. How it is done: as §1
Blood drops were sampled before treatment and at 0.5, 1, 2, 4, 6, and 24 h after PO dosage; samples after IP dosage were identical with an additional time point of 0.25 h. The blood drops were analyzed adopting the dry blood spot technique and analysis by LC-MS^2. Briefly, blood was collected from the retro-orbital complex using capillary tubes and dropped (15 μL) on WhatmanFTADMPK cards (B). The spots were left to air-dry at room temperature for at least 2 h. For analysis, a 6 mm disk was punched out and extracted in 75:25 MeCN/water containing the internal standard tolbutamide. The amount of parent compound was determined using liquid chromatography (UPLC) (Waters Aquity) coupled with tandem quadrupole mass spectrometry (MS^2) (Waters Xevo) equipped with an electrospray ionization (ESI) interface and operated in multiple reaction monitoring mode. Standard curves in whole blood were made for calibration and validation. Standard PK parameters were determined using Topfit software.
Brain tissue of the animals was collected on ice at autopsy 24 h post-treatment (50 mg/kg oral dose) after perfusion. […] The tissues were immediately homogenized using a GentleMacs tissue homogenizer. The tissue samples were subjected to protein precipitation by adding MeCN, followed by a centrifugation step at 4 °C for 5 min at 21, 130 g. The supernatant was further diluted in 75:25 MeCN/water for LC-MS^2 analysis as described above.

Like-named read-outs stand apart in the source and are kept apart here. A value given as a limit tells only on which side of the number the result lay.

As for `CC(C)c1n[nH]c2c(=O)[nH]c(Cc3ccccc3)nc12` [compound 1, reference compound], the “MRC-5 pIC50” value in [1] is listed as < 4.2.

As for `Cc1ccc(C(=O)Nc2ccc(S(=O)(=O)O)c3cc(S(=O)(=O)O)cc(S(=O)(=O)O)c23)cc1NC(=O)c1cccc(NC(=O)Nc2cccc(C(=O)Nc3cc(C(=O)Nc4ccc(S(=O)(=O)O)c5cc(S(=O)(=O)O)cc(S(=O)(=O)O)c45)ccc3C)c2)c1` [suramin, reference compound], the survival entry in data set [2] was “survived throughout the 60 days postinfection follow-up period without relapse”.

In the case of `O=c1[nH]c(-c2ccc(F)cc2)nc2c(C3CCCC3)n[nH]c12` [31a, 3-Cyclopentyl-5-(4-fluorophenyl)-1,6-dihydro-7H-pyrazolo[4,3-d]pyrimidin-7-one], the IC50 in data set [3] is > 63.1 µM; in data set [4] it was > 63.1 µM; in data set [6] it was > 63.1 µM; in data set [7], 0.01 µM; in [8], > 63.1 µM; in [9], 0.01 µM. Besides, the parent compound remaining result in [5] and in data set [10] (1 h) was “at least 69%” throughout. In addition, the “improved potency compared to 2” value in data set [9] (T. brucei, versus compound 2) worked out at 6 fold. Also, the “time within which compound was metabolized” value in [10] was ≤ 15 min.

For `CC(C)c1c2nc(-c3ccc(F)cc3)[nH]c(=O)c2nn1C` [compound 15, 5-(4-Fluorophenyl)-3-isopropyl-2-methyl-2,6-dihydro-7H-pyrazolo[4,3-d]pyrimidin-7-one], the IC50 in data set [6] is > 63.1 µM; in data set [9] it was 1.58 µM. Moreover, in data set [9] (versus compound 2), the “decrease of antitrypanosomal activity compared with 2” value was found to be 20 fold.

As to `CC(C)c1n[nH]c2c(=O)[nH]c(-c3ccc(F)cc3)nc12` [compound 2], the IC50 in data set [3] and in data set [6] was > 63.1 µM in each case. Moreover, the survival result in [11] (25 mg/kg group) is given as “all animals died at 11 days postinfection”; in [11] (50 mg/kg dose), “all animals survived until the end of the experiment”. The Tmax – broadly, the time from dosing to the highest level – at 24 h in data set [12] (ip, 10 mg/kg) turned out to be 0.25 h; in data set [12] (po, 50 mg/kg), 3 ± 1.5 h. Further, the “MRC-5 pIC50” value in data set [1] was < 4.2.

`CC(C)c1[nH]nc2c(=O)n(C)c(-c3ccc(F)cc3)nc12` [compound 7, 5-(4-Fluorophenyl)-3-isopropyl-6-methyl-2,6-dihydro-7H-pyrazolo[4,3-d]pyrimidin-7-one]: the values for the IC50 in data set [6] and in data set [9] were > 63.1 µM and > 10 µM, respectively. Further, the “decrease of antitrypanosomal activity compared with 2” value in data set [9] (versus compound 2) was > 100 fold.

For `CCCn1nc(C(C)C)c2nc(-c3ccc(F)cc3)[nH]c(=O)c21` [21b, 5-(4-Fluorophenyl)-3-isopropyl-1-propyl-1,6-dihydro-7H-pyrazolo[4,3-d]pyrimidin-7-one], the IC50 is > 63.1 µM in [6] and 0.158 µM in data set [9].

Source of the values: paper PMC10895668, “Lead Optimization of the 5-Phenylpyrazolopyrimidinone NPD-2975 toward Compounds with Improved Antitrypanosomal Efficacy” (Journal of Medicinal Chemistry, 2024).
